Data: BindingDB's records for doi:10.1016/j.bmcl.2003.12.105 (Ucb Pharma, 2004)

Experiment: Inhibition of [3H](+)-pentazocine binding to Sigma receptor type 1
With COc1ccc2c(c1)[C@]1(CCN(C)CCO)CCCC[C@@H]1C=C2 [2-{[2-((4aS,10aR)-6-Methoxy-1,3,4,10a-tetrahydro-2H-phenanthren-4a-yl)-ethyl]-methyl-amino}-ethanol] the Ki was 0.161 µM.
COc1ccc2c(c1)[C@]1(CCN(C)CCOCc3ccccc3)CCCC[C@@H]1C=C2 [(2-Benzyloxy-ethyl)-[2-((4aS,10aR)-6-methoxy-1,3,4,10a-tetrahydro-2H-phenanthren-4a-yl)-ethyl]-methyl-amine; compound with GENERIC INORGANIC NEUTRAL COMPONENT] showed a Ki of 0.241 µM.
Work on COCCN(C)CC[C@@]12CCCC[C@@H]1C=Cc1ccc(OC)cc12 [(2-Methoxy-ethyl)-[2-((4aS,10aR)-6-methoxy-1,3,4,10a-tetrahydro-2H-phenanthren-4a-yl)-ethyl]-methyl-amine; compound with GENERIC INORGANIC NEUTRAL COMPONENT] yielded a Ki of 0.049 µM.
Molecule C=CCN(C)CC[C@@]12CCCC[C@@H]1C=Cc1ccc(OC)cc12 [Allyl-[2-((4aS,10aR)-6-methoxy-1,3,4,10a-tetrahydro-2H-phenanthren-4a-yl)-ethyl]-methyl-amine; compound with GENERIC INORGANIC NEUTRAL COMPONENT] has a Ki of 0.049 µM.
Molecule COc1ccc2c(c1)[C@]13CCCC[C@@H]1[C@H](C2)N(C)CC3 [DEXTROMETHORPHAN] has a Ki of 0.348 µM.
COc1ccc2c(c1)[C@]1(CC[N+](C)(C)C(=O)OC(C)(C)C)CCCC[C@@H]1C=C2 [N-{2-[(4aS,10aR)-6-methoxy-1,2,3,4,4a,10a-hexahydrophenanthren-4a-yl]ethyl}-1-(tert-butoxy)-N,N-dimethylcarbonyl{2-[(4aS,10aR)-6-methoxy-1,2,3,4,4a,10a-hexahydrophenanthren-4a-yl]ethyl}dimethylazanium] gave a Ki greater than 3.3 µM.
With COc1ccc2c(c1)[C@]1(CCN(C)C)CCCC[C@@H]1C=C2 [[2-((4aS,10aR)-6-Methoxy-1,3,4,10a-tetrahydro-2H-phenanthren-4a-yl)-ethyl]-dimethyl-amine; compound with GENERIC INORGANIC NEUTRAL COMPONENT] the Ki was 0.245 µM.
CNCC[C@@]12CCCC[C@@H]1C=Cc1ccc(OC)cc12 [[2-((4aS,10aR)-6-Methoxy-1,3,4,10a-tetrahydro-2H-phenanthren-4a-yl)-ethyl]-methyl-amine] gave a Ki of 0.456 µM.
Work on CCOC(=O)N(C)CC[C@@]12CCCC[C@@H]1C=Cc1ccc(OC)cc12 [[2-((4aS,10aR)-6-Methoxy-1,3,4,10a-tetrahydro-2H-phenanthren-4a-yl)-ethyl]-methyl-carbamic acid ethyl ester] yielded a Ki greater than 3.3 µM.
In the case of CN(CC[C@]12CCCC[C@H]1C=Cc1ccc(OCC(=O)OC(C)(C)C)cc12)CC(=O)OC(C)(C)C [{(4bR,8aS)-4b-[2-(tert-Butoxycarbonylmethyl-methyl-amino)-ethyl]-4b,5,6,7,8,8a-hexahydro-phenanthren-3-yloxy}-acetic acid tert-butyl ester], the Ki is reported as 0.115 µM.
With CN(CC[C@@]12CCCC[C@@H]1C=Cc1ccc(OCC(=O)OC(C)(C)C)cc12)CC(=O)OC(C)(C)C [{(4bS,8aR)-4b-[2-(tert-Butoxycarbonylmethyl-methyl-amino)-ethyl]-4b,5,6,7,8,8a-hexahydro-phenanthren-3-yloxy}-acetic acid tert-butyl ester] the Ki was 0.014 µM.
Work on COc1ccc2c(c1)[C@]1(CCN(C)CC(=O)OC(C)(C)C)CCCC[C@@H]1C=C2 [{[2-((4aS,10aR)-6-Methoxy-1,3,4,10a-tetrahydro-2H-phenanthren-4a-yl)-ethyl]-methyl-amino}-acetic acid tert-butyl ester; compound with GENERIC INORGANIC NEUTRAL COMPONENT] yielded a Ki of 0.037 µM.

Experiment: as above
Remark: another data set of the same source
For COc1ccc2c(c1)[C@]1(CCN(C)CC(=O)OC(C)(C)C)CCCC[C@@H]1C=C2 [{[2-((4aS,10aR)-6-Methoxy-1,3,4,10a-tetrahydro-2H-phenanthren-4a-yl)-ethyl]-methyl-amino}-acetic acid tert-butyl ester; compound with GENERIC INORGANIC NEUTRAL COMPONENT], the Ki was 0.373 µM.
